In patent US20220195056A1, “METHOD OF TREATING KELOIDS” (Icahn School of Medicine at Mount Sinai, priority 2019, published 2022):
“Also recorded” adds a separate entry of the source.

Legend:
Assay type in all cases: in vivo, human
keloid [1] = assay: Clinical keloid response to dupilumab in a subject with severe atopic dermatitis and two keloid nodules
Description: (A) On the right popliteal fossa, a large depigmented keloid (denoted by the dotted arrow) measured at 3.5 cm horizontal, 2.8 cm vertical, and 2.1 cm, and a smaller adjacent keloid (denoted by the bold arrow) measured at 1.2 cm horizontal, 0.7 cm vertical, and 1.1 cm, August 2018. […] Images to scale and taken with different perspectives. Th2-specific inflammatory biomarkers (C-E) measured by quantitative real-time PCR in healthy skin and keloid non-lesional (NL) and lesional (LS) skin. Black stars: significance of comparison between keloid skin and controls. Black lines within boxes represent median values; bold red lines represent mean values. Each black dot represents an individual patient; ^+P<0.1, *P<0.05.
A subject afflicted with severe atopic dermatitis (AD) (body surface area/BSA 70%; SCORing of AD/SCORAD, 50; Eczema Area and Severity Index/EASI, 33) post-inflammatory hypopigmentation, and two keloid nodules was treated with dupilumab. […] Both nodules were present for more than 2 years. […] The subject received 300 mg subcutaneous dupilumab injections for severe AD, administered every 2 weeks for a month.

keloids = assay: Clinical keloid response to dupilumab injections in African American keloid patients
Method: (A) The image depicts keloids before treatment with dupilumab in a patient. (B) The image depicts keloids in a patient after 1.5 months of treatment with dupilumab (subcutaneous injections of 300 mg every week, after 600 mg induction at baseline). (C) The image depicts keloids in the same patient at the end of the third month of treatment with dupilumab.
A subject with keloids, but without other dermatological symptoms, was treated with dupilumab. The subject received 300 mg subcutaneous dupilumab injections, administered weekly.
The inventors observed a significant keloid reduction in yet a third patient treated with dupilumab. Another patient with keloids, but no other dermatological symptoms, received weekly subcutaneous injections of dupilumab (300 mg) and observed a positive response.
In addition, only the weekly injections were sufficient to maintain the size reduction and to treat the pain and irritation associated with the keloids in the afflicted patients.

keloid [2] = assay: Prior treatment of keloid nodules with intralesional triamcinolone injections; settings: before dupilumab
[3] = after 3 months, weekly subcutaneous 300 mg
[4] = after 3 months, weekly subcutaneous 300 mg after 600 mg induction

dupilumab
outcome of the smaller adjacent keloid (keloid [1]; after dupilumab treatment (seven months), before treatment 1.2 cm horizontal, 0.7 cm vertical, 1.1 cm): complete disappearance | larger keloid nodule size, third (unnamed) dimension, after dupilumab (keloid [1]; post-treatment, before treatment 2.1 cm): 0.9 cm | larger keloid nodule size, vertical, after dupilumab (keloid [1]; post-treatment, before treatment 2.8 cm): 1 cm | larger keloid nodule size, horizontal, after dupilumab (keloid [1]; post-treatment, before treatment 3.5 cm): 1.6 cm | reduction in size of the large keloid (keloid [1]; seven months after dupilumab treatment, 300 mg subcutaneous every 2 weeks for a month, right popliteal fossa): > 50% | change in keloid size (FIG. 3 patient) (keloids; 3 months, 300 mg subcutaneous every week after 600 mg induction at baseline): noticeable reduction in the keloid size; also recorded: reduction in size and depth | keloid shrinkage in diameter (FIG. 5 patient) (keloids; [3]): 0.8 cm | keloid shrinkage in height (FIG. 5 patient) (keloids; [3]): 0.5 cm | keloid shrinkage in diameter (FIG. 4 patient) (keloids; [4]): 2 cm | keloid shrinkage in height (FIG. 4 patient) (keloids; [4]): 0.5 cm | efficacy of every other week injections on keloids (keloids; injections every other week): insufficient to treat keloids | patients with reduction in keloid size and shape (keloids; weekly dupilumab injections, African American patients): three of the three | change in keloid size (third patient, FIG. 5) (keloids; weekly subcutaneous 300 mg): noticeable reduction in the keloid size

C[C@]12C=CC(=O)C=C1CC[C@H]1[C@@H]3C[C@@H](O)[C@](O)(C(=O)CO)[C@@]3(C)C[C@H](O)[C@@]12F [triamcinolone]
keloid response to prior intralesional treatment (keloid [2]): minimal improvement
